# Values quoted from earlier work, collected in US11826320B2, “Treating COVID 19 by using a mixture of cannabinoids in micellized form to lower levels of pro-inflammatory cytokines and reduce risk of cytokine storm” (WSMEF, LLC, priority 2020, dated 2023).
# Tests used:
# SARS-CoV-2 = conditions: purified CBD
# [1] = molecular target: T1, serotonin 5-HT1A receptor (Homo sapiens, UniProt P08908)
# T1 sequence (P08908 1-422): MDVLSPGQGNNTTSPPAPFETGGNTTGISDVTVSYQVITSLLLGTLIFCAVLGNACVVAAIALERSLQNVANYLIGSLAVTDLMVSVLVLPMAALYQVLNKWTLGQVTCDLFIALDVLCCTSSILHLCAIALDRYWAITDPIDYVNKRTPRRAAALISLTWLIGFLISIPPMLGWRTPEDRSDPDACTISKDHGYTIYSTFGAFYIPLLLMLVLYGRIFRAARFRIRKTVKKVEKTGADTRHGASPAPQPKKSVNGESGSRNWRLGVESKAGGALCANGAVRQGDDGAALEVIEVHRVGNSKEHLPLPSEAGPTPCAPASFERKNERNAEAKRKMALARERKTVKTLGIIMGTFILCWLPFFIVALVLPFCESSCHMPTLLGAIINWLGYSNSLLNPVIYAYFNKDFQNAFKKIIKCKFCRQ
# μ-opioid receptor = μ-opioid receptor (Homo sapiens, UniProt P35372)
# μ-opioid receptor, sequence (P35372 whole entry): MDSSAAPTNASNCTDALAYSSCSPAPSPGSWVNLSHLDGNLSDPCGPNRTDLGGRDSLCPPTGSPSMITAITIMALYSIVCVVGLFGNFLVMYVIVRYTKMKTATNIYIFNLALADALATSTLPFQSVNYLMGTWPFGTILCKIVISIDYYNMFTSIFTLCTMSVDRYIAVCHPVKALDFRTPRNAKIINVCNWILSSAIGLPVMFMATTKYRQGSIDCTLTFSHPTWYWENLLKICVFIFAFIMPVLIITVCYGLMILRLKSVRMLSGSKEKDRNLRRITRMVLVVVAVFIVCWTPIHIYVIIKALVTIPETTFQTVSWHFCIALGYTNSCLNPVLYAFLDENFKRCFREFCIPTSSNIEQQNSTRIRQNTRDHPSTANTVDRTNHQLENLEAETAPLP
# δ-opioid receptor = δ-opioid receptor (Homo sapiens, UniProt P41143)
# δ-opioid receptor, sequence (P41143 whole entry): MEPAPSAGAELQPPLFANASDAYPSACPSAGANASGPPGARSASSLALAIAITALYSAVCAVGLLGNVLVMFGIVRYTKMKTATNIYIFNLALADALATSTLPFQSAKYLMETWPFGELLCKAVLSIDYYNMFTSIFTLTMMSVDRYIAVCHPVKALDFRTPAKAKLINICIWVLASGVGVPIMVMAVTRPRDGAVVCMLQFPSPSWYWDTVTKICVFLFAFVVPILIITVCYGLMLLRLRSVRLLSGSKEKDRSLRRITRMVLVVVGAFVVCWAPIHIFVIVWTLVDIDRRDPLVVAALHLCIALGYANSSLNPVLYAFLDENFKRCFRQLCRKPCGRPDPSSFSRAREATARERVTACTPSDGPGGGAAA
# cannabinoid CB2 receptor = cannabinoid CB2 receptor (Homo sapiens, UniProt P34972)
# cannabinoid CB2 receptor, sequence (P34972 whole entry): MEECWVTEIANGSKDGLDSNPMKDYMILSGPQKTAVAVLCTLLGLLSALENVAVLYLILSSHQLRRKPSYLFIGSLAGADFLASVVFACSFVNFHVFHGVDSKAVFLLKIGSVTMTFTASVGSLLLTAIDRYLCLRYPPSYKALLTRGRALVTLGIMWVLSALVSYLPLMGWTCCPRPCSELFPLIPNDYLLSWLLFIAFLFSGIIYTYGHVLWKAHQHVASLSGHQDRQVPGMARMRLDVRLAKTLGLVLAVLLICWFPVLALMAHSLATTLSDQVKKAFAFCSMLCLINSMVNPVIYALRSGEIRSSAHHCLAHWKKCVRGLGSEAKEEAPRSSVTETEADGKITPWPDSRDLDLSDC
smiles,measurement,setting,value
"C=C(C)[C@@H]1CCC(C)=C[C@H]1c1c(O)cc(CCCCC)cc1O [CBD, cannabidiol]",replication of SARS-CoV-2,SARS-CoV-2,inhibits replication
same,action at 5-HT1A receptor,[1],partial agonist
same,action at μ-opioid receptor,μ-opioid receptor,allosteric modulator
same,action at δ-opioid receptor,δ-opioid receptor,allosteric modulator
same,affinity for CB2 receptor,cannabinoid CB2 receptor,low affinity
